# Laboratory results reported in patent US6664231B1, “Anti-fungal peptides” (priority 1993, dated 2003).
# Where “and” joins values, the source holds several entries; their conditions need not be identical. Identical values can stand only once. Like-named read-outs stand apart in the source and are kept apart here. Square brackets hold non-standard residues; d marks the D form. Ends that are not written are not given here. Peptide text beside a SMILES is read from it. Phe(4-NH2) = Nc1ccc(C[C@H](N)C(=O)O)cc1; d2Nal = N[C@H](Cc1ccc2ccccc2c1)C(=O)O; pGlu = O=C1CC[C@@H](C(=O)O)N1; Dab = NCC[C@H](N)C(=O)O
# Experiments:
# [1] = test system: mouse RAW 264.7 cells incubated with E. coli O113 LPS; details: RAW 264.7 cells with E. coli O113 LPS; concentration reversing LPS growth inhibition by 50%
# Protocol: (§1) An in vitro LPS neutralization screening assay for evaluation of Domain III derived peptides was developed (as described in co-owned and co-pending U.S. patent application Ser. No. 08/306,473) which provides both a measure of efficacy of each peptide (EC50) and of the toxicity/growth inhibition of each peptide (IC50).
# (§2) The cells were counted and their concentration adjusted to 2×10^5 cells/mL and 100 μL aliquots were added to each well of a 96-well microtitre plate. […] This incubation was performed in the absence or presence of peptides in varying concentrations between 25 ng/mL and 50 μg/mL. […] Cell proliferation was quantitatively measured by the addition of 1 μCi/well [^3H]-thymidine 5 hours after the time of initiation of the assay. After the 15-hour incubation, labeled cells were harvested onto glass fiber filters with a cell harvester (Inotech Biosystems, INB-384, Sample Processing and Filter Counting System, Lansing, Mich.).
# mouse RAW 264.7 cells = test system: mouse RAW 264.7 cells
# Protocol: as §1, §2
# [2] = test system: C. albicans (CA-1, Strain SLU-1); experiment: Radial diffusion assay; type: cell-based, Candida albicans; details: for Plate Assay (nmol), crude peptide activity / Plate Assay (nmol), pure peptide activity: nanomoles required to achieve a net 30 mm^2 zone (log titration curve); for C. albicans pmol/30 mm^2 zone: pmoles of peptide added to well to achieve a 30 mm^2 zone, PROBIT analysis, crude or purified (P′) peptide; for Plate Assay (nmol), pure peptide activity: HPLC-purified peptide
# Method in brief: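 Peptides, serially diluted 2-fold in D-PBS (top ~1 mg/mL), diffused 3 h at 37° C into pH 7.4 phosphate-buffered agarose seeded with 1×10^6 CFU/mL yeast, before overnight growth under a 6% Sabouraud overlayer. Net inhibition zones measured after Coomassie staining; PROBIT fit of log pmol vs area gave pmol for 30 mm^2.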
# [3] = RAW 264.7 cell growth inhibited by 50%
molecule,measurement,setting,value
CC[C@H](C)[C@H](NC(=O)[C@H](CC(C)C)NC(=O)[C@H](Cc1c[nH]c2ccccc12)NC(=O)[C@H](CCCN)NC(=O)[C@@H](N)CCCN)C(=O)N[C@@H](CCC(N)=O)C(=O)N[C@@H](CC(C)C)C(=O)N[C@@H](CCCN)C(=O)N[C@@H](CCCN)C(N)=O [XMP 338],In Vitro LPS Neutralization EC50,[1],>25 µg/mL
same,IC50 (toxicity/growth inhibition of peptide),mouse RAW 264.7 cells; [3],NA (NA for IC50 means no evidence of decreased RAW cell growth at up to 50 μg/ml)
CC[C@H](C)[C@H](NC(=O)[C@H](CC(C)C)NC(=O)[C@H](Cc1c[nH]c2ccccc12)NC(=O)[C@H](CCN)NC(=O)[C@@H](N)CCN)C(=O)N[C@@H](CCC(N)=O)C(=O)N[C@@H](CC(C)C)C(=O)N[C@@H](CCN)C(=O)N[C@@H](CCN)C(N)=O [XMP 339P] (H-[Dab][Dab]WLIQL[Dab][Dab]-NH2),In Vitro LPS Neutralization EC50,[1],NA (NA for EC50 means no evidence neutralization of LPS at up to 50 μg/ml)
same,IC50 (toxicity/growth inhibition of peptide),mouse RAW 264.7 cells; [3],NA (NA for IC50 means no evidence of decreased RAW cell growth at up to 50 μg/ml)
CC[C@H](C)[C@H](NC(=O)[C@H](CC(C)C)NC(=O)[C@@H](N)Cc1c[nH]c2ccccc12)C(=O)N[C@@H](CCC(N)=O)C(=O)N[C@@H](CC(C)C)C(=O)N[C@@H](Cc1ccccc1)C(=O)N[C@@H](Cc1c[nH]cn1)C(=O)N[C@@H](CCCCN)C(N)=O [XMP.303P],In Vitro LPS Neutralization EC50,[1],11.79 ± 0.85 µg/mL
same,IC50 (toxicity/growth inhibition of peptide),mouse RAW 264.7 cells; [3],NA (NA for IC50 means no evidence of decreased RAW cell growth at up to 50 μg/ml)
CC[C@H](C)[C@H](NC(=O)[C@H](CC(C)C)NC(=O)[C@H](Cc1c[nH]c2ccccc12)NC(=O)[C@H](CCCCN)NC(=O)[C@H]1CCCN1)C(=O)N[C@@H](CCC(N)=O)C(=O)N[C@@H](CC(C)C)C(=O)N[C@@H](CCCCN)C(=O)N[C@@H](CCCCN)C(N)=O [XMP.334P],In Vitro LPS Neutralization EC50,[1],NA (NA for EC50 means no evidence neutralization of LPS at up to 50 μg/ml)
same,IC50 (toxicity/growth inhibition of peptide),mouse RAW 264.7 cells; [3],NA (NA for IC50 means no evidence of decreased RAW cell growth at up to 50 μg/ml)
CC[C@H](C)[C@H](NC(=O)[C@H](CC(C)C)NC(=O)[C@H](Cc1c[nH]c2ccccc12)NC(=O)[C@H](CCCCN)NC(=O)[C@@H]1CCCN1)C(=O)N[C@@H](CCC(N)=O)C(=O)N[C@@H](CC(C)C)C(=O)N[C@@H](CCCCN)C(=O)N[C@@H](CCCCN)C(N)=O [XMP.335P],In Vitro LPS Neutralization EC50,[1],NA (NA for EC50 means no evidence neutralization of LPS at up to 50 μg/ml)
same,IC50 (toxicity/growth inhibition of peptide),mouse RAW 264.7 cells; [3],NA (NA for IC50 means no evidence of decreased RAW cell growth at up to 50 μg/ml)
CC[C@H](C)[C@H](NC(=O)[C@H](CC(C)C)NC(=O)[C@H](Cc1c[nH]c2ccccc12)NC(=O)[C@H](Cc1ccc(N)cc1)NC(=O)[C@@H](N)Cc1ccc(N)cc1)C(=O)N[C@@H](CCC(N)=O)C(=O)N[C@@H](CC(C)C)C(=O)N[C@@H](Cc1ccc(N)cc1)C(=O)N[C@@H](Cc1ccc(N)cc1)C(N)=O [XMP.340P] (H-[Phe(4-NH2)][Phe(4-NH2)]WLIQL[Phe(4-NH2)][Phe(4-NH2)]-NH2),In Vitro LPS Neutralization EC50,[1],>50 µg/mL
same,IC50 (toxicity/growth inhibition of peptide),mouse RAW 264.7 cells; [3],NA (NA for IC50 means no evidence of decreased RAW cell growth at up to 50 μg/ml)
CC[C@H](C)[C@H](NC(=O)[C@H](CC(C)C)NC(=O)[C@@H](Cc1ccc2ccccc2c1)NC(=O)[C@H](CCCCN)NC(=O)[C@@H](N)CCCCN)C(=O)N[C@@H](CC(C)C)C(=O)N[C@@H](CC(C)C)C(=O)N[C@@H](CCCCN)C(=O)N[C@@H](CCCCN)C(N)=O [XMP.347P] (H-KK[d2Nal]LILLKK-NH2),In Vitro LPS Neutralization EC50,[1],1.65 ± 0.09 µg/mL
same,IC50 (toxicity/growth inhibition of peptide),mouse RAW 264.7 cells,>25 µg/mL
H-SKVKWLIQL-NH2 [Peptide 294],"Plate Assay (nmol), crude peptide activity",[2],>4.634 nmol
H-SKVKWLIQL-NH2 [XMP.294],C. albicans pmol/30 mm^2 zone,[2],">4,634 pmol/30 mm^2 zone"
H-SKVKWLIQLF-NH2 [Peptide 290],"Plate Assay (nmol), crude peptide activity",[2],>2.233 nmol
H-SKVKWLIQLF-NH2 [XMP.290],C. albicans pmol/30 mm^2 zone,[2],">2,233 pmol/30 mm^2 zone"
H-SKVKWLIQLFH-NH2 [Peptide 287],"Plate Assay (nmol), crude peptide activity",[2],>3.509 nmol
H-SKVKWLIQLFH-NH2 [XMP.287],C. albicans pmol/30 mm^2 zone,[2],">3,509 pmol/30 mm^2 zone"
H-SKVKWLIQLFHK-NH2 [Peptide 285],"Plate Assay (nmol), crude peptide activity",[2],>3.024 nmol
H-SKVKWLIQLFHK-NH2 [XMP.285],C. albicans pmol/30 mm^2 zone,[2],">3,024 pmol/30 mm^2 zone"
H-SKVKWLIQLFHKK-NH2 [Peptide 284],"Plate Assay (nmol), pure peptide activity",[2],0.373 nmol
same,"Plate Assay (nmol), crude peptide activity",[2],1.460 nmol
H-SKVKWLIQLFHKK-NH2 [XMP.284P],In Vitro LPS Neutralization EC50,[1],4.72 ± 0.08/ μg/ml and 3.57 ± 0.09 μg/ml
H-SVHVHISKSKVGWLIQLFHKKIESALRNK-NH2 [XMP.12],C. albicans pmol/30 mm^2 zone,[2],>2099 pmol/30 mm^2 zone
H-VKWLIQ-NH2 [XMP.314],C. albicans pmol/30 mm^2 zone,[2],">13,497 pmol/30 mm^2 zone"
H-VKWLIQ-NH2 [compound 314],"Plate Assay (nmol), crude peptide activity",[2],13.497 nmol
H-VKWLIQL-NH2 [Peptide 307],"Plate Assay (nmol), crude peptide activity",[2],>8.345 nmol
H-VKWLIQL-NH2 [XMP.307],C. albicans pmol/30 mm^2 zone,[2],">8,345 pmol/30 mm^2 zone"
H-VKWLIQLF-NH2 [XMP.301],C. albicans pmol/30 mm^2 zone,[2],b (No detectable activity up to 5 μg/well)
H-VKWLIQLFH-NH2 [Peptide 296],"Plate Assay (nmol), crude peptide activity",[2],>5.573 nmol
H-VKWLIQLFH-NH2 [XMP.296],C. albicans pmol/30 mm^2 zone,[2],">5,573 pmol/30 mm^2 zone"
H-VKWLIQLFHK-NH2 [Peptide 292],"Plate Assay (nmol), crude peptide activity",[2],>4.063 nmol
H-VKWLIQLFHK-NH2 [XMP.292],C. albicans pmol/30 mm^2 zone,[2],">4,463 pmol/30 mm^2 zone"
H-VKWLIQLFHKK-NH2 [Peptide 289],"Plate Assay (nmol), pure peptide activity",[2],0.68 nmol
same,"Plate Assay (nmol), crude peptide activity",[2],1.542 nmol
H-VKWLIQLFHKK-NH2 [XMP.289],C. albicans pmol/30 mm^2 zone,[2],"1,542 pmol/30 mm^2 zone"
same,C. albicans pmol/30 mm^2 zone,[2]; listed as XMP.289P′,658 pmol/30 mm^2 zone
H-WLIQL-NH2 [XMP.320],C. albicans pmol/30 mm^2 zone,[2],">4,055 pmol/30 mm^2 zone"
H-WLIQLF-NH2 [XMP.316],C. albicans pmol/30 mm^2 zone,[2],b (No detectable activity up to 5 μg/well)
same,C. albicans pmol/30 mm^2 zone,[2]; listed as XMP.316P′,"g (inactive to 7,194 pmol)"
H-WLIQLF-NH2 [compound 316],"Plate Assay (nmol), pure peptide activity",[2],inactive
same,"Plate Assay (nmol), crude peptide activity",[2],11.1 nmol
H-WLIQLFH-NH2 [XMP.309],C. albicans pmol/30 mm^2 zone,[2],b (No detectable activity up to 5 μg/well)
H-WLIQLK-NH2 [XMP.321],C. albicans pmol/30 mm^2 zone,[2],">5,851 pmol/30 mm^2 zone"
H-WLIQLKK-NH2 [XMP.322],C. albicans pmol/30 mm^2 zone,[2],"3,488 pmol/30 mm^2 zone"
KKVLIQLKK-NH2 [XMP.343],C. albicans pmol/30 mm^2 zone,[2],245 pmol/30 mm^2 zone
XMP.137: C-148-161-C (SEQ ID NO:56) (CKSKVGWLIQLFHKKC),C. albicans pmol/30 mm^2 zone,[2],>2286 pmol/30 mm^2 zone
XMP.341: PYR - PYR - 153-157 - PYR - PYR (SEQ ID NO:172) ([pGlu][pGlu]WLIQL[pGlu][pGlu]; not fully specified; printed as PYR - PYR - 153-157 - PYR - PYR),C. albicans pmol/30 mm^2 zone,[2],b (No detectable activity up to 5 μg/well)
XMP.359: CD - 153-161 (SEQ ID NO:190) ([dC]WLIQLFHKK),C. albicans pmol/30 mm^2 zone,[2],b (No detectable activity up to 5 μg/well)
XMP.380: K - K - Q - L - L - L - L - K - K (SEQ ID NO:211) (KKQLLLLKK),C. albicans pmol/30 mm^2 zone,[2],886 pmol/30 mm^2 zone
XMP.382: K - K - L - L - Q - L - L - K - K (SEQ ID NO:213) (KKLLQLLKK),C. albicans pmol/30 mm^2 zone,[2],"1,437 pmol/30 mm^2 zone"
XMP.383: K - K - L - L - L - Q - L - K - K (SEQ ID NO:214) (KKLLLQLKK),C. albicans pmol/30 mm^2 zone,[2],473 pmol/30 mm^2 zone
XMP.384: K - K - L - L - L - L - Q - K - K (SEQ ID NO:215) (KKLLLLQKK),C. albicans pmol/30 mm^2 zone,[2],"2,804 pmol/30 mm^2 zone"
"XMP.390: 151-161, K @ 151 (V), P @ 152 (G) (SEQ ID NO:221) (KPWLIQLFHKK)",C. albicans pmol/30 mm^2 zone,[2],674 pmol/30 mm^2 zone
"XMP.392: 150-161, P @ 152 (G) (SEQ ID NO:223) (KVPWLIQLFHKK)",C. albicans pmol/30 mm^2 zone,[2],569 pmol/30 mm^2 zone
XMP.408: L - K - K - K - W - A - I - Q (cyclized head to tail) (SEQ ID NO:239) (LKKKWAIQ; head-to-tail cyclized),C. albicans pmol/30 mm^2 zone,[2],b (No detectable activity up to 5 μg/well)
"XMP.409: S - K - 153-157 - K - K, A @ 154 (L) (SEQ ID NO:240) (SKWAIQLKK)",C. albicans pmol/30 mm^2 zone,[2],795 pmol/30 mm^2 zone
